Results on 14 compounds are retold here after patent US11332477B2, “Nitrogen containing heterocycle substituted benzoxazine oxazolidinone compound and preparation method and use thereof” (INSTITUTE OF MATERIA MEDICA, CHINESE ACADEMY OF MEDICAL …, priority 2017, dated 2022).

Converted amounts (≈) assume the structure as drawn. A value given as a limit tells only on which side of the number the result lay.

Data set [1] has as its system mitochondrial protein synthesis. Put plainly: Activity of inhibiting mitochondrial protein synthesis. Type of data set: biochemical. Particulars: mitochondrial protein synthesis inhibition, Table 3. The protocol:
The experimental steps were carried out according to the literature (Antimicrobial Agents and Chemotherapy, 2006, 50 (6), 2042-2049).

Data set [2] concerns Mycobacterium tuberculosis H37Rv. Put plainly: Anti-tuberculosis activity test in vitro (Microplate Alamar Blue Assay, MABA). In kind it is cell-based. Particulars: M. tuberculosis H37Rv, MABA, 7H9 medium, method says MIC90 was calculated, read-out: MIC.
A further data set relates to Vero cells. Put plainly: Cytotoxicity test (MTT). Particulars: Chlorocebus sabaeus; Vero cells, MTT, 48 hours of incubation, highest concentration 64 μg/mL; read-out: IC50. In kind it is cell-based.

For orientation: IC50 means the midpoint of a concentration-inhibition curve. Broadly, the MIC is the smallest concentration in the dilution series that meets the test's criterion for growth inhibition. By melting point is commonly meant the temperature of the solid-liquid transition. Turning to `O=C(NC[C@@H]1OC(=O)N2c3cc(F)c(N4CCSCC4)cc3OC[C@@H]12)C1CC1` [Compound 6, N-(((3S,3aS)-8-Fluoro-1-oxo-7-thiomorpholino-3a,4-dihydro-1H,3H-benzo[b]oxazolo[3,4-d][1,4]oxazin-3-yl)methyl)cyclopropanecarboxamide], the melting point fell in the range of 209 to 211 °C. Moreover, in data set [1], the concentration for half-maximal inhibition (IC50) was over 100 µg/mL. For the same compound, the MIC in data set [2] is 0.034 µg/mL (≈ 0.0834 µM). Moreover, the IC50 in the data set with Vero cells is over 64 µg/mL.

Compound `O=C(NC[C@@H]1OC(=O)N2c3cc(F)c(N4CCSCC4)cc3OC[C@@H]12)C1CCC1` [Compound 7, N-(((3S,3aS)-8-Fluoro-1-oxo-7-thiomorpholino-3a,4-dihydro-1H,3H-benzo[b]oxazolo[3,4-d][1,4]oxazin-3-yl)methyl)cyclobutanecarboxamide] gave a melting point of 176 to 178 °C. In data set [1], this compound returned an IC50 of 53.69 µg/mL (≈ 127 µM). For the same compound, in data set [2], the MIC is 0.03 µg/mL (≈ 0.0712 µM). In the data set with Vero cells, the IC50 was over 64 µg/mL.

The compound `O=C(NC[C@H]1OC(=O)N2c3cc(F)c(N4CCSCC4)cc3OC[C@H]12)C1CCC1` [Compound 29, N-(((3R,3aR)-8-Fluoro-1-oxo-7-thiomorpholino-3a,4-dihydro-1H,3H-benzo[b]oxazolo[3,4-d][1,4]oxazin-3-yl)methyl)cyclobutane carboxamide] showed a melting point of 183 to 185 °C. Also, the IC50 in data set [1] is over 100 µg/mL. Moreover, the MIC in data set [2] was 0.219 µg/mL (≈ 0.52 µM). Further, the IC50 in the data set on Vero cells was over 64 µg/mL.

For the compound `O=C1O[C@H](CNc2ccon2)[C@H]2COc3cc(N4CCSCC4)c(F)cc3N12` [Compound 31, (3R,3aR)-8-Fluoro-3-((isoxazol-3-ylamino)methyl)-7-thiomorpholino-3a,4-dihydro-1H, 3H-benzo[b]oxazolo[3,4-d][1,4]oxazin-1-one], the melting point is 149 to 150 °C. This compound showed an IC50 in data set [1] of over 100 µg/mL. Also, in data set [2], the MIC was 0.123 µg/mL (≈ 0.303 µM). In addition, the IC50 in the data set on Vero cells is over 64 µg/mL.

`NC[C@@H]1OC(=O)N2c3cc(F)c(N4CCSCC4)cc3OC[C@@H]12` [Compound 1, (3S,3aS)-3-(Aminomethyl)-8-fluoro-7-thiomorpholino-3a, 4-dihydro-1H,3H-benzo[b]ox azolo[3,4-d][1,4]oxazin-1-one] displayed a melting point of 155 to 157 °C. Moreover, the 50% inhibitory concentration (IC50) in data set [1] came out at 75.51 µg/mL (≈ 222 µM). The minimal inhibitory concentration (MIC) in data set [2] is 0.029 µg/mL (≈ 0.0854 µM). The half-inhibitory concentration (IC50) in the data set on Vero cells amounted to 36 µg/mL (≈ 106 µM).

Compound `COC(=O)NC[C@@H]1OC(=O)N2c3cc(F)c(N4CCSCC4)cc3OC[C@@H]12` [Compound 8, Methyl (((3S,3aS)-8-Fluoro-1-oxo-7-thiomorpholino-3a,4-dihydro-1H,3H-benzo[b]oxazolo[3,4-d][1,4]oxazin-3-yl)methyl)carbamate] showed a melting point of 155 to 156 °C. In data set [1], this compound returned a half-maximal inhibitory concentration (IC50) of over 100 µg/mL. Also, in data set [2], the MIC was 0.031 µg/mL (≈ 0.078 µM). Further, the half-inhibitory concentration (IC50) in the data set on Vero cells is over 64 µg/mL.

For `CC(=O)NC[C@@H]1OC(=O)N2c3cc(F)c(N4CC[S+]([O-])CC4)cc3OC[C@@H]12` [Compound 23, N-(((3S,3aS)-8-Fluoro-1-oxo-7-(1-oxidothiomorpholino)-3a,4-dihydro-1H,3H-benzo[b]oxazolo[3,4-d][1,4]oxazin-3-yl)methyl)acetamide], the melting point fell in the range of 214 to 216 °C. In data set [1], this compound gave an IC50 of 60.57 µg/mL (≈ 152 µM). In addition, the MIC in data set [2] is 0.442 µg/mL (≈ 1.11 µM). Also, the IC50 with Vero cells is over 64 µg/mL.

As to `O=C(NC[C@@H]1OC(=O)N2c3cc(F)c(N4CCSCC4)cc3OC[C@@H]12)c1cnccn1` [Compound 11, N-(((3S,3aS)-8-Fluoro-1-oxo-7-thiomorpholino-3a,4-dihydro-1H,3H-benzo[b]oxazolo[3,4-d][1,4]oxazin-3-yl)methyl)pyrazine-2-carboxamide], the melting point lay within 212 to 214 °C. The compound also yielded a 50% inhibitory concentration (IC50) in data set [1] of over 100 µg/mL. In data set [2], the minimal inhibitory concentration (MIC) was 0.115 µg/mL (≈ 0.258 µM). Also, the IC50 in the data set on Vero cells was 40.7 µg/mL (≈ 91.3 µM).

Turning to `O=C1O[C@@H](CNc2ccon2)[C@@H]2COc3cc(N4CCSCC4)c(F)cc3N12` [Compound 9, (3S,3aS)-8-Fluoro-3-((isoxazol-3-ylamino)methyl)-7-thiomorpholino-3a,4-dihydro-1H,3H-benzo[b]oxazolo[3,4-d][1,4]oxazin-1-one], the melting point lay in the range of 148 to 150 °C. The IC50 in data set [1] is over 100 µg/mL. Further, in data set [2], the minimal inhibitory concentration (MIC) was 0.025 µg/mL (≈ 0.0615 µM). Also, in the data set on Vero cells, the IC50 was over 64 µg/mL.

Compound `O=C(NC[C@@H]1OC(=O)N2c3cc(F)c(N4CCSCC4)cc3OC[C@@H]12)c1ccncc1` [Compound 10, N-(((3S,3aS)-8-Fluoro-1-oxo-7-thiomorpholino-3a,4-dihydro-1H,3H-benzo[b]oxazolo[3,4-d][1,4]oxazin-3-yl)methyl)isonicotinamide] yielded a melting point of 135 to 137 °C. In data set [1], this compound had a half-inhibitory concentration (IC50) of over 100 µg/mL. In addition, in data set [2], the minimal inhibitory concentration (MIC) was 0.16 µg/mL (≈ 0.36 µM). For the same compound, in the data set on Vero cells, the half-inhibitory concentration (IC50) is over 64 µg/mL.

Turning to `CC(C)C(=O)NC[C@@H]1OC(=O)N2c3cc(F)c(N4CCSCC4)cc3OC[C@@H]12` [Compound 5, N-(((3S,3aS)-8-Fluoro-1-oxo-7-thiomorpholino-3a,4-dihydro-1H,3H-benzo[b]oxazolo[3,4-d][1,4]oxazin-3-yl)methyl)isobutyramide], the melting point was 193 to 195 °C. In addition, the concentration for half-maximal inhibition (IC50) in data set [1] is over 100 µg/mL. In data set [2], the MIC is 0.095 µg/mL (≈ 0.232 µM). The IC50 in the data set on Vero cells is over 64 µg/mL.

`O=C1O[C@@H](Cn2ccnn2)[C@@H]2COc3cc(N4CCSCC4)c(F)cc3N12` [Compound 12, (3S,3aS)-3-((1H-1,2,3-Triazol-1-yl)methyl)-8-fluoro-7-thiomorpholino-3a,4-dihydro-1H,3H-benzo[b]oxazolo[3,4-d][1,4]oxazin-1-one] yielded a melting point of 223 to 225 °C. Besides, the IC50 in data set [1] is over 100 µg/mL. Further, the minimum inhibitory concentration (MIC) in data set [2] is 0.227 µg/mL (≈ 0.58 µM). In the data set on Vero cells, the half-maximal inhibitory concentration (IC50) was over 64 µg/mL.

As to `CC(=O)NC[C@@H]1OC(=O)N2c3cc(F)c(N4CCSCC4)cc3OC[C@@H]12` [Compound 4, N-(((3S,3aS)-8-Fluoro-1-oxo-7-thiomorpholino-3a,4-dihydro-1H,3H-benzo[b]oxazolo[3,4-d][1,4]oxazin-3-yl)methyl)acetamide], the IC50 in data set [1] was 99.39 µg/mL (≈ 261 µM); with Vero cells, over 64 µg/mL. Further, in data set [2], the minimum inhibitory concentration (MIC) is 0.044 µg/mL (≈ 0.115 µM).

With `CC(=O)NC[C@H]1OC(=O)N2c3cc(F)c(N4CCSCC4)cc3OC[C@H]12` [Compound 28, N-(((3R,3aR)-8-Fluoro-1-oxo-7-thiomorpholino-3a,4-dihydro-1H,3H-benzo[b]oxazolo[3,4-d][1,4]oxazin-3-yl)methyl)acetamide], the half-maximal inhibitory concentration (IC50) in data set [1] was over 100 µg/mL; in the data set on Vero cells, over 64 µg/mL. Besides, in data set [2], the MIC is 0.232 µg/mL (≈ 0.608 µM).
